Experimental data published in US6087361A, “Aryl-imidazolines and aryl-imidazoles useful as α-2 adrenergic agonists without cardiovascular side effects” (Allergan Sales, Inc., priority 1997, dated 2000).

What was measured:
[1] = target: I2A; assay: Receptor binding, I2A
[2] = target: I2B; assay: Receptor binding, I2B
[3] = target: I1 imidazoline receptor; assay: I1 imidazoline receptor binding assay, 3H-clonidine, bovine VLM membranes; details: 25° C., 50 min
Procedure: Fresh bovine brain stems were obtained from a local slaughter house. After removal of pia-arachnoid, the medulla was isolated by dissecting the brain stem about 1 cm posterior and 1 cm caudal to the obex. The ventral quadrants of the medulla excluding the pyramids were used as the VLM. For each preparation, 30 to 40 VLM were used. Initial homogenization was performed in 20 volumes of 5 mM HEPES buffer (pH 7.4 at 4° C.) containing 250 mM sucrose, 50 uM Calpain I inhibitor (Boehginer Mannheim, Indianapolis, Ind.), 100 uM 1,10-phenanthroline (Sigma, St. Louis, Mo.) and 50 uM Pefabloc (Boehginer Mannheim, Indianapolis, Ind.), using Virtis homogenizer at setting 7 with three 10 second pulses, followed by three passes in a teflon-glass tissue homogenizer. The inhibitors were added to prevent degradation by proteases and peptidases. The homogenates were then centrifuged at 1000× g for 10 min and the resulting pellets were re-homogenized and centrifuged. Supernatants resulted from both runs were combined and centrifuged for 20 min at 48000× g. The pellets obtained were resuspended in a teflon-glass homogenizer in 50 mM Tris-HCl with 5 mM EDTA (pH 7.7 at 4° C.), centrifuged, and resuspended in 50 mM Tris-HCl with 25 mM NaCl, pH 7.7 at room temp. To remove endogenous ligands, the homogenate was incubated 30 min at room temp before it was centrifuged for 20 min at 48000× g. The pellets were then washed with 50 mM Tris-HCl buffer, (pH 7.4 at 4° C.) and loaded on top of 5 mM HEPES/0.85 M sucrose (pH 7.4 at 4° C.). Pellets obtained after centrifugation at 48000× g for 20 min were saved. The fatty connective tissue on the top layer was discarded. The partially purified VLM membrane pellets were then washed twice with 50 mM Tris-HCl, pH 7.7 at 4° C., flash frozen in dry ice/acetone slush, and stored at -100° C. until use. Receptor binding experiments were performed within days after the membrane preparation.
I1 imidazoline receptor binding affinity was determined from radioligand binding of ^3 H-clonidine (NEN, Boston, Mass.) to bovine VLM membranes. Specific activity of ^3 H-clonidine was 43 Ci/mmol. Kd of ^3 H-clonidine binding to the I1 imidazoline receptor was determined by saturation experiments and Ki of other ligands studied were determined by competition experiments. The radioligand binding assay was performed in Teflon 96-wells with the Biomek-1000 robotics (Beckman Instruments, Fullerton, Calif.). Each well contained […] ^3 H-Clonidine and 0.3 to 0.5 mg of bovine VLM protein in 5 mM HEPES buffer containing 0.5 mM EGTA and 0.5 mM MgCl2, pH 7.4 (0.1 mM ascorbic acid was added just before the protein). After 50 min of incubation at 25° C., the reaction was terminated by rapid filtration over Whatman GF/B filters treated with 0.1% polyethyleneimine and washed with 12 ml ice cold 50 mM Tris-HCl, pH 7.4 at 4° C. in a Brandel Harvester (Brandel, Gaithersburg, Md.). Both `hot` and `cold` saturation experiments were performed. In `hot` saturation experiments, studies were performed with ^3 H-clonidine ranging from 0.1 to 50 nM. In `cold` saturation experiments, studies were performed with 2 nM ^3 H-clonidine with 20 different concentrations of the unlabeled clonidine, ranging from 0.1 nM to 1 uM unlabeled clonidine. Non specific binding was defined by parallel incubations containing 10^-5 M phentolamine or naphazoline. Imidazoline binding was determined by parallel incubations in which the alpha-adrenergic sites were masked with 10^-5 M norepinephrine. During competition experiments, ligands of 20 concentrations ranged from 10^-11 to 10^-4 were used. Radioactivity was counted in a Beckman LS-3801 scintillation counter. Data were captured and analyzed with Accufit saturation and competition softwares modeled both for one-site and two-site fits (Beckman Instruments, Fullerton, Calif.) using an IBM compatible computer. All experiments were repeated at least twice.

[4] = target: α1; assay: Receptor binding, [3H]prazosin, human cerebral cortex membranes (HCC); details: 22° C., 30 min
Procedure: Tissue preparation: Membrane suspensions were prepared from human cerebral cortex ([…], for α1 receptors) obtained from the UCI Organ and Tissue Bank. Briefly, tissues (1 g) were homogenized in 25 mL of ice-cold 5 mM Tris, pH 7.4 with a Polytron homogenizer for 30 sec at setting #7, and centrifuged for
10-12 minutes at 300× g at 4° C. The supernatant was filtered through 2 layers of gauze and diluted 1:2 with 50 mM Tris-HCl buffer, pH 7.4, then centrifuged at 49,000× g for 20 minutes. The pellet fraction was washed 3 times (resuspended in Tris-HCl buffer and centrifuged for 20 minutes; at 49,000× g). The pellet was then stored at -80° C. until the binding assay.
(§1) Binding Studies: The radioligands [^3 H]rauwolscine (specific activity 80 Ci/mmol) and [^3 H]prazosin (specific activity 76 Ci/mmol) were obtained from New England Nuclear, Boston, Mass. Frozen membrane pellet was resuspended in 25 mM glycine/glycine, pH 7.5 and incubated with radioligand under the following conditions: CHO-C10, CHO-RNG, CHO-C4-[^3 H]rauwolscine, 22° C., 30 minutes; RKC-[^3 H]rauwolscine, 0° C., 120 minutes; and, HCC-[^3 H]prazosin, 22° C., 30 minutes in a final volume of 500 ul. At the end of the incubation period, the samples were filtered through glass filters (Whatman GF/B) in a 96 well cell harvester and rapidly washed four times with 4 mL of iced-cold 50 mM Tris-HCl buffer. The filters were then oven dried and transferred to scintillation vials containing 10 mL of Beckman's Ready Protein® scintillation cocktail for counting. […] Protein concentrations were determined with a protein assay kit from Bio Rad. Binding isotherms, equilibrium dissociation and affinity constants were analyzed and determined by the non-linear least squares curve fitting programs EBDA (BioSoft) or AccuFit Competition/Saturation by Beckman.
(§2) The radioligands [^3 H] rauwolscine (specific activity 80 Ci/mmol) and [^3 H] prazosin (specific activity 76 Ci/mmol) were obtained from New England Nuclear, Boston, Mass. Frozen membrane pellet was resuspended in 25 mM glycine/glycine, pH 7.4 and incubated with radioligand under the following conditions: CHO-C10, CHO-RNG, CHO-C4-[^3 H]rauwolscine, 22° C., 30 min.; and, HCC-[^3 H]prazowsin, 22° C., 30 minutes in a final volume of 500 ul. At the end of the incubation period, the samples were filtered through glass fiber filters (Whatman GF/B) in a 96 well cell harvester and rapidly washed four times which 4 mL of iced-cold 50 mM Tris-CHI buffer. The filters were then oven dried and transferred to scintillation vials containing 5 mL of Beckman's Ready Protein® scintillation cocktail for counting. […] Protein concentrations were determined with a protein assay kit from Bio lad. Binding isotherms, equilibrium dissociation and affinity constants were analyzed and determined by the non-linear least squares curve fitting programs AccuFit Competition/Saturation by Beckman.
(§3) Representative compounds of the present invention were tested according to the procedures given above. […] The receptor binding studies and K1 are measures of the affinity of a compound for a particular receptor.

[5] = tested on: α2A; details: cited from earlier work
[6] = target: T1, human α2C (Homo sapiens, UniProt P18825); assay: Receptor binding, [3H]rauwolscine, CHO-C4 cells expressing human α2C; details: CHO-C4, 22° C., 30 min
T1 construct: expressed in transfected cells; host or cells: CHO cells (CHO-C4)
T1 sequence (P18825 1-462): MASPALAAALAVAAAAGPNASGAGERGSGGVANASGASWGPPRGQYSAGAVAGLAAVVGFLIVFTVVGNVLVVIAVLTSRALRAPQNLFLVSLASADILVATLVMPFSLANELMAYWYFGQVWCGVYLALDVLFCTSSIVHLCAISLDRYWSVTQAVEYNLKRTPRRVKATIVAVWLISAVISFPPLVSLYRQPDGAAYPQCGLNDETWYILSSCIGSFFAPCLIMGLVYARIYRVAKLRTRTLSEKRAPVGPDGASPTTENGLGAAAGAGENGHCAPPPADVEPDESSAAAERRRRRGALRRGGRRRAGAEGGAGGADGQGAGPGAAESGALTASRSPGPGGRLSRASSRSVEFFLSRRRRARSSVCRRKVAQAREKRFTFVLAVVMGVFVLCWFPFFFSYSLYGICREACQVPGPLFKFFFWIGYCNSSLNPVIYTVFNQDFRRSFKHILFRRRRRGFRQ
Procedure: Cell preparation: Chinese hamster ovary (CHO) cells expressing the human α2A and human α2C (CHO-C10 and CHO-C4 respectively) receptors and CHO cells (CHO-RNG) expressing the rat α2B, adrenoceptor were grown to near confluence in Dulbecco's modified Eagle's medium supplemented with 10% fetal bovine serum using standard cell culture methods. Cells were harvested by scraping and placed into cold buffer of the following composition: 50 mM Tris-HCl, 5 mM EDTA, pH 7.4). […] The pellet fraction was washed (resuspended in Tris-HCl, pH 8 buffer and centrifuged for 15-20 minutes at 49,000× g) 2 times and stored at -100° until binding assay.
as §1, §2, §3

[7] = tested on: imidazoline receptors and α2 adrenoceptors; details: cited from earlier work
[8] = rabbit, in vivo
[9] = cited from earlier work
[10] = tested on: α2 receptors; details: cited from earlier work
[11] = tested on: α1 receptors; details: prazosin vs yohimbine; cited from earlier work

Ki [1] [µM]	Ki [2] [µM]	Ki [3] [µM]	Ki [4] [µM]	Structure (SMILES)	further results
–	–	–	–	Cc1cccc([C@H](C)c2cnc[nH]2)c1C [dexmedetomidine]	α2A selectivity (in words) [5]: a2A selective
100	100	0.056	38.6	COc1nc(C)nc(Cl)c1NC1=NCCN1 [Example 6]	–
7.71	0.686	0.444	2.15	Cc1c(Nc2ncc[nH]2)ccc2c1OCCO2 [Example 21]	–
12.9	2.69	7.42	0.199	Cc1cc(C(C)(C)C)c(O)c(C)c1CC1=NCCN1 [Example 23]	–
6.37	0.036	0.227	30.6	Cc1c(Nc2ncc[nH]2)ccc2nccnc12 [Example 24]	Ki [6]: 0.212 µM
–	–	–	–	Clc1cccc(Cl)c1N=C1NCCN1 [clonidine]	binding to α2 and imidazoline receptors (in words) [7]: binds to both α2 and imidazoline receptors; IOP of the untreated eye (systemic effect) [8]: the IOP of the untreated eye is lowered to the same extent as the treated eye; cardiovascular effect (in words) ([9]; in vivo): hypotensive cardiovascular effects; α2 adrenergic mechanism of action (in words) [10]: centrally acting α2 adrenergic partial agonist
6.18	0.179	0.013	7.61	COc1ccc(Nc2ncc[nH]2)c(C)c1 [Example 19]	–
27	9.28	5.3	14.8	Cc1c(Nc2ncc[nH]2)ccc2c1NCCO2 [Example 17]	–
–	–	–	–	COC(=O)[C@@H]1[C@H]2C[C@H]3c4[nH]c5ccccc5c4CCN3C[C@@H]2CC[C@@H]1O [yohimbine]	relative potency at α2 receptors (in words) ([10]; yohimbine vs prazosin): more potent than prazosin
–	–	–	–	C1COC(NC(C2CC2)C2CC2)=N1 [rilmenidine]	selectivity for imidazoline receptors (in words) [7]: more selective for imidazoline receptors than for α2 -adrenoceptors; side effects compared to clonidine ([9]; equihypotensive doses): less bradycardia and reduction in cardiac output, less sedation, and little or no antinociceptive action compared to clonidine
–	–	–	–	COc1cc2nc(N3CCN(C(=O)c4ccco4)CC3)nc(N)c2cc1OC [prazosin]	relative potency at α1 receptors (in words) [11]: more potent that yohimbine

Structure (SMILES)	Ki [1] [µM]	Ki [2] [µM]	Ki [3] [µM]	Ki [4] [µM]	further results
Brc1c(NC2=NCCN2)ccc2nccnc12 [Example 5]	7.19	0.614	0.017	1.85	–
Clc1cccc(Cl)c1NC1=NCCN1 [Example 2]	10	12.5	0.0089	–	–
